Data reported in ChEMBL document CHEMBL1151351, “Antineoplastic Agents. 67. Senecio fendleri Gray” (1980).

What was measured:
[1] = test system: P388; assay: In vivo antitumor activity against mouse P388 cells at 5 mg/kg relative to control; type: functional
[2] = test system: P388; assay: In vivo antitumor activity against mouse P388 cells at 2 mg/kg relative to control; type: functional

| SMILES | T/C [1] [%] | T/C [2] [%] |
| --- | --- | --- |
| CCOC(=O)CC1(O)C=CC(=O)C=C1 | 120 |  |
| COC(=O)CC1(O)C=CC(=O)C=C1 [JACARANONE] |  | 165 |
